The subject of assay [1] is AII-1 receptor. Briefly: DTT inactivation of the AII-1 receptor. Format: binding, rat. The text has this:
(§1) 102: 685-696, except the above binding assay conditions were used.

The target of assay [2] is T1, AII-2 receptor (Rattus norvegicus, UniProt P35351).
T1 sequence (P35351 1-363): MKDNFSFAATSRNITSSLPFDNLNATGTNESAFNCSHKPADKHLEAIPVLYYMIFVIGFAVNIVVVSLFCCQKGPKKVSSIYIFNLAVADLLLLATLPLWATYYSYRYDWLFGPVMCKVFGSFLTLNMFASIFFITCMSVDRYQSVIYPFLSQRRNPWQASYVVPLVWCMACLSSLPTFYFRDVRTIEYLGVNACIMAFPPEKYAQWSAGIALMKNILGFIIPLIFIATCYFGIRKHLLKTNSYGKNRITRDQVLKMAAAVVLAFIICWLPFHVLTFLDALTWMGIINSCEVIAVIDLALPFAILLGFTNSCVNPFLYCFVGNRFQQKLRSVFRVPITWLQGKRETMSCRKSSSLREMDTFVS
The assay can be described thus: DTT inactivation of the AII-2 receptor. Format: binding. Also on record: AII-1 and AII-2 receptor subtypes in rat adrenal cortex microsomes; from tissue; host or cells: rat adrenal cortex (microsomes).
Description: as §1

The next assay deals with AII receptor subtype A. The note with it: cited from earlier work.
The subject of a further assay is AII receptor subtype B. The note with it: cited from earlier work.
The target of assay [3] is AII-1 receptor. Briefly: [125I]AII radioligand binding, rat adrenal cortical microsomes, AII-1 (DuP 753-sensitive) sites. The following applies: for preference for one AII receptor subtype: AII-1 vs. AII-2.
Description: (§2) The same procedures and conditions were used for adrenal medullary microsomes. […] After 60 min of incubation, the reaction was terminated by addition of cold assay buffer. The bound and free radioactivity were rapidly separated through glass-fiber filters, and the trapped radioactivity was determined by gamma counting.
Assay [4] has as its system AII receptors (rat adrenal medullary microsomes). The assay can be described thus: [125I]AII specific binding, rat adrenal medulla / medullary microsomes. The following applies: below 1×10^-5 M; rat adrenal medullary microsomes.
Description: as §2
The target in assay [5] is T2, AII receptors (rat adrenal medullary microsomes) (Rattus norvegicus, UniProt P35351).
T2 construct: from tissue; host or cells: rat adrenal medulla, microsomes
T2 sequence (P35351 1-363): T1 sequence (P35351 1-363)
The assay is described as above.
Description: as §2

The test system of assay [6] is AII receptors (rat adrenal cortical microsomes). Briefly: [125I]AII total specific binding, rat adrenal cortex / cortical microsomes.
Description: as §2
The test system of assay [7] is AII receptors (rat adrenal cortical membranes). The assay can be described thus: AII binding to rat adrenal cortical membranes with and without DTT pretreatment. The note with it: for effect of DTT on the inhibition of AII binding: 5 mM DTT, DuP 753 at 3×10^-9 to 3×10^-6 M.
Description: as §1

The test system of assay [8] is AII receptors (rat adrenal gland). The following applies: DuP 753 10^-5 M, XB-655 10^-6 M.
Description: Fresh tissue was frozen on powdered dry ice and stored at -70° C. until used. Sections were cut at 15 microns and thaw mounted onto gelatin subbed slides. […] Slides were placed under X-ray film (Kodak XAR-5) and exposed for 11/2 days before processing the film to produce the film autoradiograms. The slides were then fixed with paraformaldehyde vapor at 80° C. for two hours, dried under air, delipidated, and dipped in emulsion (Kodak NTB-2). The coated slides were exposed for 4-5 weeks, developed with Kodak D-19 and counter-stained with hemotoxylin-eosin to view the histology.
Assay [9] deals with T1, AII-2 receptor. The assay can be described thus: [125I]AII radioligand binding, rat adrenal cortical microsomes, AII-2 (DuP 753-insensitive) sites. The following applies: for selective binding to AII-2 receptors: AII-2 vs. AII-1.
Description: as §2
The test system of assay [10] is memory of previously learned tasks. The following applies: in vivo; cited from earlier work.
Assay [11] deals with light/dark habituation performance. The note with it: cited from earlier work.
The subject of another assay is PA task. The assay can be described thus: renin-induced amnesia in a PA task (applicants). The note with it: IVT. Format: in vivo.
The test system of a further assay is avoidance learning. The note with it: renin IVT, cited from earlier work; for avoidance learning: captopril IVT prior to the renin injection.
The test system of assay [12] is retention of a passive avoidance (PA) response. The note with it: injected into the dorsal neostriatum, rats; cited from earlier work.
Assay [13] has as its system potassium stimulated release of [^3 H]ACh. The following applies: entorhinal cortex of rat brain; cited from earlier work.
Setting [14] is: in the presence of 10^-5 M XB-655, rat adrenal cortex microsomes, read-out: IC50 AII-1.

“And” between values parts separate entries of the source, which are not always exact repeats. Equal entries are not always repeated. “Also recorded” adds a separate entry of the source. Where two headings read alike, the source gives them in different places.

`O[C@H](CS)[C@H](O)CS` (racemic) [DTT, dithiothreitol]: the “inactivation of AII-1 receptor by DTT” value in the assay on AII-1 receptor [1] was “particularly sensitive to inactivation; also recorded: inactivated by DTT”. Also, on AII-2 receptor [2], the “inactivation of AII-2 receptor by DTT” value is given as “resistant to DTT inactivation”. For the same molecule, in the assay on AII receptor subtype A, the “effect of DTT on binding to subtype A” value is on record as “enhance binding to subtype A”. Moreover, the “effect of DTT on binding to subtype B” value in the assay with AII receptor subtype B is “inhibit binding to subtype B”.

On to `CCCCc1nc(Cl)c(CO)n1Cc1ccc(-c2ccccc2-c2nn[nH]n2)cc1` [DuP 753], for which the IC50 at AII-1 receptor [3] (setting [14]) worked out at 12 nM. Moreover, in [4], the “inhibition of binding below 1×10^-5 M” value is given as 10%. Also, the “inhibition of AII binding (in words)” value in [5] (rat adrenal medulla) is “essentially inactive”. In addition, the “inhibition of the total AII binding” value in assay [6] was determined as 80%. For the same molecule, the “effect of DTT on the inhibition of AII binding” value in assay [7] was “essentially abolished”. Besides, in [8], the “labeling of adrenal cortex by [125I]AII” value is given as “significantly reduced” and the “labeling of adrenal medulla by [125I]AII” value is on record as “not appreciably affected”.

Consider `COC(=O)C1Cc2c(ncn2Cc2ccc(NC(=O)c3ccccc3C(=O)O)c(C)c2)CN1C(=O)C(c1ccccc1)c1ccccc1` (centres unmarked) [Example 2, Methyl-1-[4-amido-(2'-carboxyphenyl)-3-methylphenyl]methyl-5-diphenylacetyl-4,5,6,7-tetrahydro-1H-imidazo (4,5-C)-pyridine-6-carboxylate], for which the “selective binding to AII-2 receptors” value at AII-2 receptor [9] is recorded as “bind selectively to AII-2 receptors”. In addition, the concentration for half-maximal inhibition (IC50) on AII-1 receptor [3] (setting [14]) was found to be 12000 nM.

In the case of `O=C(O)C1Cc2c(ncn2Cc2ccc(-c3ccccc3-c3nnn[nH]3)cc2)CN1C(=O)C(c1ccccc1)c1ccccc1` (centres unmarked) [Example 27], on AII-2 receptor [9], the “selective binding to AII-2 receptors” value is “bind selectively to AII-2 receptors”. Besides, the 50% inhibitory concentration (IC50) on AII-1 receptor [3] (setting [14]) was determined as 300000 nM.

As for `NCCCC[C@H](OP(=O)(O)CCCCc1ccccc1)C(=O)N1CCC[C@H]1C(=O)O` [SQ 29852], in [10], the “anticholinergic effect on performance” value is recorded as “ameliorate, at least in part” and the “memory of previously learned tasks” value is reported as “protective effects on memory”.

Turning to `CNCC(=O)N[C@@H](CCCN=C(N)N)C(=O)N[C@H](C(=O)N[C@@H](Cc1ccc(O)cc1)C(=O)N[C@H](C(=O)N[C@@H](Cc1cnc[nH]1)C(=O)N1CCC[C@H]1C(=O)N[C@@H](C)C(=O)O)C(C)C)C(C)C` [Saralasin], the IC50 is ~1.3 nM and 1.3 nM on AII-2 receptor [9] (IC50 AII-2, in the presence of 10^-5 M DuP 753, rat adrenal cortex microsomes); 1.7 nM on AII-1 receptor [3] (setting [14]); ~1.7 nM at AII-1 receptor [3] (read-out: IC50, DuP 753-sensitive site, in the presence of 10^-5 M XB-655, unit inferred); 0.4 nM in assay [5] (rat adrenal medulla / medullary microsomes). Moreover, in the assay with AII-1 receptor [3], the “preference for one AII receptor subtype” value was “no preference”. Further, the “effect of DTT on the inhibition of AII binding” value in assay [7] was “not significantly altered”.

Take `C[C@H](CS)C(=O)N1CCC[C@H]1C(=O)O` [captopril]: the “anticholinergic scopolamine-induced disruption of performance” value in [11] (daily treatment) is reported as “prevented”. Moreover, in assay [11] (subchronic treatment), the “rate of acquisition of light/dark habituation performance” value is on record as “increased the rate of acquisition”. Besides, the “amnesia in a PA task” value in the assay on PA task is given as “prevented”. Besides, in the assay with avoidance learning, the avoidance learning result is “prevented the renin-induced avoidance disruption”.

As to `NC(=O)[C@@H]1CCCN1C(=O)[C@H](Cc1cnc[nH]1)NC(=O)[C@@H]1CCC(=O)N1` [thyrotropin releasing hormone], the “retention of a PA response” value in [12] is given as “no effect”.

Consider “Angiotensin II (DRVYIHPF; Angiotensin-2; UniProt P01019 25-32, looked up) [AII]”, for which, in the assay on AII-1 receptor [3], the “preference for one AII receptor subtype” value is “no preference”. For the same molecule, the “retention of a PA response” value in [12] is recorded as “disruption in retention of a PA response”. Also, in assay [13], the “basal levels of ACh release” value is given as “without effects on basal levels” and the “potassium-stimulated release of ACh” value is recorded as “reduced potassium-stimulated release of ACh”. For the same molecule, in assay [7] (presence vs. absence of DTT), the “enhancement of inhibitory potency by DTT” value came to 2.5 fold. Further, in [7] (read-out: IC50 in the absence of DTT, absence of DTT), the IC50 is 1 nM. In [8], the “labeling of adrenal cortex by [125I]AII” value is “potently inhibited the labeling” and the “labeling of adrenal medulla by [125I]AII” value is “potently inhibited the labeling”.

Consider “[1-sarcosine, 8-threonine]angiotensin II”, for which the “antagonism of the AII effect on ACh release” value in assay [13] is listed as “antagonized”.

Consider lysine-8-vasopressin, for which the “retention of a PA response” value in assay [12] is listed as “no effect”.

B1: renin: an enzyme involved in endogenous AII biosynthesis (protein, UniProt P00797 67-406, looked up)
Renin: LTLGNTTSSVILTNYMDTQYYGEIGIGTPPQTFKVVFDTGSSNVWVPSSKCSRLYTACVYHKLFDASDSSSYKHNGTELTLRYSTGTVSGFLSQDIITVGGITVTQMFGEVTEMPALPFMLAEFDGVVGMGFIEQAIGRVTPIFDNIISQGVLKEDVFSFYYNRDSENSQSLGGQIVLGGSDPQHYEGNFHYINLIKTGVWQIQMKGVSVGSSTLLCEDGCLALVDTGASYISGSTSSIEKLMEALGAKKRLFDYVVKCNEGPTLPDISFHLGGKEYTLTSADYVFQESYSSKKLCTLAIHAMDIPPPTGPTWALGATFIRKFYTEFDRRNNRIGFALAR
In the case of B1, in the assay with PA task, the “amnesia in a PA task” value was “dose-related amnesia”. Besides, the avoidance learning result with avoidance learning is listed as “disruption of avoidance learning”. The “AII level in cerebrospinal fluid (CSF)” value with avoidance learning (increase from 40) is given as “about 5000 fmol per mL”.

By IC50 is commonly meant the point on the concentration scale where inhibition reaches its midpoint.

Values taken from patent US5091390A, “Treatment of CNS disorders with 4,5,6,7-tetrahydro-1H-imidazo (4,5-)-pyridines and analogs” (E. I. du Pont de Nemours and Company, priority 1990, dated 1992).
